ChEMBL document CHEMBL1201862, “PubChem BioAssay data set” (2004)
The source made the active and inactive calls.

Columns and labels:
[1] = target: SUMO-activating enzyme (Homo sapiens, UniProt Q9UBT2); assay: blockers of SAE1/SAE2–UBC9 SUMO transfer – biochemical, HTRF, uHTS, primary screen (AID 2006); format: protein-complex assay
[2] = target: T1, Heat shock factor protein 1 (Mus musculus, UniProt P38532); assay: enhancement of HSF1-driven luciferase signal – cell-based, NIH3T3, luminescence, dose retest, confirmation (AID 435004); format: functional;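 further: stress induced by proteasome inhibitor MG132 added 30 min after compound; luciferase reporter driven by HSF1 response element in NIH3T3 cells; actives raise luminescence as potentiators of the MG132 stress response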
T1 sequence (P38532 whole entry): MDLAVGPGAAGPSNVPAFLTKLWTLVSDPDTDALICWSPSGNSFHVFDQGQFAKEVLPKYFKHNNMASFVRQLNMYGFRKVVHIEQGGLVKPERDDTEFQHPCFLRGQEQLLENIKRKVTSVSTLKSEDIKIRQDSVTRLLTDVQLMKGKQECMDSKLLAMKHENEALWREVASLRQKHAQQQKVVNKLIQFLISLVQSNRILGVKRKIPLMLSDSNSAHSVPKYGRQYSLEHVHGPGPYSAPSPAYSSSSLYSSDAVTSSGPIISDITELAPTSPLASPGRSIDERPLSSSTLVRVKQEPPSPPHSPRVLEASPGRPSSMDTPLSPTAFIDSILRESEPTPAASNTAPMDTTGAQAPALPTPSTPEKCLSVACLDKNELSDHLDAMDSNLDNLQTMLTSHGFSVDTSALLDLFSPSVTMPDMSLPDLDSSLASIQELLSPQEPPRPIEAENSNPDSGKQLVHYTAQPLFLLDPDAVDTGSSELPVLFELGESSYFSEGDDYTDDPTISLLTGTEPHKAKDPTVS

[3] = target: Genome polyprotein (dengue virus type 2, UniProt P29990); assay: flavivirus cap methylation enzyme inhibition – biochemical, confirmation dose response, primary screen (AID 588689); format: functional
Sequence of Genome polyprotein (P29990 2492-3391 limits assumed): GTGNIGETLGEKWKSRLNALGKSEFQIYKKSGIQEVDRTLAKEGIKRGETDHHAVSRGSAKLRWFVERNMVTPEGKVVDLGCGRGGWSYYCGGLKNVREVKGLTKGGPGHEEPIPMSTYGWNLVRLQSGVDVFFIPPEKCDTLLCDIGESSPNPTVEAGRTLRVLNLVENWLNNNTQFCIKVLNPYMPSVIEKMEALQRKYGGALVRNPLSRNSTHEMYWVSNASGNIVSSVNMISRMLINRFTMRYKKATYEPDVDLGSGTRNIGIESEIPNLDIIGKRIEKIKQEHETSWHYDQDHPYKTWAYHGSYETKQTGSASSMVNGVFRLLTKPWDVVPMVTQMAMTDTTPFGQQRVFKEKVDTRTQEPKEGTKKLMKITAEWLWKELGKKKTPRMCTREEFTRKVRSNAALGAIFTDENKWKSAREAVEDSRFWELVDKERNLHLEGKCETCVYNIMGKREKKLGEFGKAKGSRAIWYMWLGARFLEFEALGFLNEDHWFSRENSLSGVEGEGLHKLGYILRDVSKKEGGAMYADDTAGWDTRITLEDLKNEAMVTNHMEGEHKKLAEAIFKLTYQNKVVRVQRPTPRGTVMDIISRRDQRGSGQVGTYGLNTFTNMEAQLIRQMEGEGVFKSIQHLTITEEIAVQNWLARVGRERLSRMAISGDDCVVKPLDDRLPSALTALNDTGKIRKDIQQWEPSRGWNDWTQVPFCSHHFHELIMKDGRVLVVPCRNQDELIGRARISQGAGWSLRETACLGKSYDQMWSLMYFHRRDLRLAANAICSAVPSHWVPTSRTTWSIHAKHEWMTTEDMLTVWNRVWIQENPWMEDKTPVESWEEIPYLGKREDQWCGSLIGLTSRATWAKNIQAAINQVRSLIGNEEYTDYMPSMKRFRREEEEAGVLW

[4] = target: Dual specificity tyrosine-phosphorylation-regulated kinase 1A (Rattus norvegicus, UniProt Q63470); format: biochemical, Homo sapiens
[5] = target: T2, Tyrosyl-DNA phosphodiesterase 2 (Homo sapiens, UniProt O95551); assay: potency against TDP2 phosphodiesterase activity – biochemical, epi absorbance, IC50, dose response (AID 743297)
T2 sequence (O95551 whole entry): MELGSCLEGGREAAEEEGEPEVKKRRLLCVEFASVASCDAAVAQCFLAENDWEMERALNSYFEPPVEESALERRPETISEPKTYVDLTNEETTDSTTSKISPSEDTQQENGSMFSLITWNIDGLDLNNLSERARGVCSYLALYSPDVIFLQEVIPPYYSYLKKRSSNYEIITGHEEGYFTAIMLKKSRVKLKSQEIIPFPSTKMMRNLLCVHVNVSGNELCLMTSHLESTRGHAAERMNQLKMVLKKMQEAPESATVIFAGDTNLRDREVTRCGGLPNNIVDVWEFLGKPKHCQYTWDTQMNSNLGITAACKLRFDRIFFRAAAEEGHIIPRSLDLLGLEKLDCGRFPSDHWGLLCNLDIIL

[6] = target: Serine/threonine-protein phosphatase (Homo sapiens, UniProt Q9BPW0); assay: inhibition of protein phosphatase 5 activity – biochemical, fluorescence, dose response (AID 2395)
Sequence of Serine/threonine-protein phosphatase (Q9BPW0 whole entry): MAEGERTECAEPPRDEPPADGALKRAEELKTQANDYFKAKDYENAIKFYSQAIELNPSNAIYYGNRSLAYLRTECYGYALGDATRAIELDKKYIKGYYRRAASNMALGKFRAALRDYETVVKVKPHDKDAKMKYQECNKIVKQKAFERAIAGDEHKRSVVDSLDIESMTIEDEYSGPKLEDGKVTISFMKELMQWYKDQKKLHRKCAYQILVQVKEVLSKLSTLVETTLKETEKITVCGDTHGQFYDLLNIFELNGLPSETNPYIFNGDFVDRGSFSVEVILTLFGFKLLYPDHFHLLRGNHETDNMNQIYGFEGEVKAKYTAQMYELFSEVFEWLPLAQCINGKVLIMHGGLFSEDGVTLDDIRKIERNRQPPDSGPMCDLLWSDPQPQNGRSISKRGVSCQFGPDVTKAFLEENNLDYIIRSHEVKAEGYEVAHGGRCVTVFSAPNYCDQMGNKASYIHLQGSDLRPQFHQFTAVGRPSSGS

[7] = target: T3, Histone-lysine N-methyltransferase NSD2 (Homo sapiens, UniProt O96028); format: biochemical
T3 sequence (O96028 whole entry): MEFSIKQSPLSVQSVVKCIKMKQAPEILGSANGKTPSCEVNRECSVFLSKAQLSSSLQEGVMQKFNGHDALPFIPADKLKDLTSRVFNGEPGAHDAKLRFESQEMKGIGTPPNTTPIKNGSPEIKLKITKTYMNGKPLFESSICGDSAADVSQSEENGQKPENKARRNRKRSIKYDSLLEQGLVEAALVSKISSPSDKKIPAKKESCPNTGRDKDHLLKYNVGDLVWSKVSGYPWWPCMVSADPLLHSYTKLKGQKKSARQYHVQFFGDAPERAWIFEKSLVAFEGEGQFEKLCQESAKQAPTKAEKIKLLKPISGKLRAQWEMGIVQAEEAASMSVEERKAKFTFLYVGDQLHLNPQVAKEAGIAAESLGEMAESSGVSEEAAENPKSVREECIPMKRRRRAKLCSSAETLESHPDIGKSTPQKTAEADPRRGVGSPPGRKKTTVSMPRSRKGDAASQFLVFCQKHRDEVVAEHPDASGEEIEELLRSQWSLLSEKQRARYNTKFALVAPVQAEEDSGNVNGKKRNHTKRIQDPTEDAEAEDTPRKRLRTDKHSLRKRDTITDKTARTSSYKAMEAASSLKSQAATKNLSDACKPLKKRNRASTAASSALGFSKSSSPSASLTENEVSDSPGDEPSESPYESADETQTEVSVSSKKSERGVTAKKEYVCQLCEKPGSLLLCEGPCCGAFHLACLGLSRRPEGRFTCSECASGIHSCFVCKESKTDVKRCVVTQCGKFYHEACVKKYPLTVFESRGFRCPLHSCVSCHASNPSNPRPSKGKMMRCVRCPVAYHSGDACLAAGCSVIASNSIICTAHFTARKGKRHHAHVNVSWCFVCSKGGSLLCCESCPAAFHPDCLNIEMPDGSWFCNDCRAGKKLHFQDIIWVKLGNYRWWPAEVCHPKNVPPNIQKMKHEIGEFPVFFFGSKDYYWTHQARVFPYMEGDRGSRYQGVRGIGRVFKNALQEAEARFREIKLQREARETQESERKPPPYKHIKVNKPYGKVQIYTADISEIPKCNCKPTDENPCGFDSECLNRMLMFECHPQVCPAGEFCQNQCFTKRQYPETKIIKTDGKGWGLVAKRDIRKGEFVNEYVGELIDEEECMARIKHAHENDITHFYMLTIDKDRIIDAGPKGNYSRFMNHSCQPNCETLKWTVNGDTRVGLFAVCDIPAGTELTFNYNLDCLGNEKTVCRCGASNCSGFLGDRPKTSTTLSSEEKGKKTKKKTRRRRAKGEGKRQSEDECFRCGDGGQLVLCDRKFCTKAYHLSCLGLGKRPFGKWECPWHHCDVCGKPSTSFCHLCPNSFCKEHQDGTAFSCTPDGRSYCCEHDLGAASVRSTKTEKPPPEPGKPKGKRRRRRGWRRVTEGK

[8] = test system: Streptococcus sp. 'group A'; assay: Streptococcus pyogenes SK(-)GAS viability under kanamycin – luminescence, BacTiterGlo, confirmation, counter-screen for streptokinase expression inhibitor project, dose response (AID 1900); format: functional, organism-based
[9] = Luminescence Cell-Based Dose Response HTS to Identify Inhibitors of 5'UTR Stem-Loop Driven Prion Protein mRNA Translation in H4 Neuroglioblastoma Cells. [Related pubchem assays: 1827 (Project Summary), 1813 (Primary HTS)]; format: functional
[10] = alpha-synuclein stem-loop luciferase translation blockers – H4 neuroglioma cells, luminescence, confirmation (AID 1988); format: functional, cell-based
[11] = test system: INS1; assay: INS-1E survival protection against cytokine death – cell-based, luminescence, retest, dose response (AID 449756); format: functional; conditions: Rattus norvegicus;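 further: cell death triggered by IL-1 beta plus TNF-alpha plus IFN-gamma mixture; protective hits raise ATP signal compared with cytokine alone wells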

Sequence of SUMO-activating enzyme (Q9UBE0 whole entry): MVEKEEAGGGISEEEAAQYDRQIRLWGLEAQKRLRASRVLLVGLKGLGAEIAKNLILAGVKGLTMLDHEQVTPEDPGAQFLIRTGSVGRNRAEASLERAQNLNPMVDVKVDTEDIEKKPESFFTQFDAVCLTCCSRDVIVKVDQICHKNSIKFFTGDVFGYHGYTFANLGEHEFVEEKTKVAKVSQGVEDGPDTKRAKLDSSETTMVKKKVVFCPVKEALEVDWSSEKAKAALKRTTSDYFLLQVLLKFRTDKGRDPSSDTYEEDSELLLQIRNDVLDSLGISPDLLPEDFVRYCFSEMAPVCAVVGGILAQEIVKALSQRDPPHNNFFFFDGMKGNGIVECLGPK
Sequence of SUMO-activating enzyme (Q9UBT2 whole entry): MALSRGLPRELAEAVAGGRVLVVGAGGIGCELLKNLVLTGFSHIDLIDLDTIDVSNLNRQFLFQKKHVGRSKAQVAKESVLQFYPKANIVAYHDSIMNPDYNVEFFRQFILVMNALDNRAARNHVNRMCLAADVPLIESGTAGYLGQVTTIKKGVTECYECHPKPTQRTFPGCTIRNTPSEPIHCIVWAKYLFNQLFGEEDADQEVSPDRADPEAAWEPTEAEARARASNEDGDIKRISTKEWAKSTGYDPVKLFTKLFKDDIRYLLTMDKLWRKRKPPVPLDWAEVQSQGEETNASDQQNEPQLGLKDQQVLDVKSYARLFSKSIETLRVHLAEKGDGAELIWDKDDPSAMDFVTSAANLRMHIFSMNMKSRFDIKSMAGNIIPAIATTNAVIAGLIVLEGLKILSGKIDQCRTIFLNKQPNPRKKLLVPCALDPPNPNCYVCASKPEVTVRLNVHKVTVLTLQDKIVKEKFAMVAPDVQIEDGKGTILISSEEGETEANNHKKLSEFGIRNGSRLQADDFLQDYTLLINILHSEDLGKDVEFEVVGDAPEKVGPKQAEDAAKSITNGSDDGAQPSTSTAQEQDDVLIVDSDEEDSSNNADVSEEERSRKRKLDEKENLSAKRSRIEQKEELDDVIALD

O=C1C=C(Nc2ccccc2C(=O)O)c2ccccc2C1=O
active: IC50 [1] 19.8 µM | EC50 [2] 133 µM | IC50 [3] > 100 µM | AC50 [4] 6.25 µM | IC50 [5] 6.56 µM

COc1ccc(NC(=S)Nc2ccc3nsnc3c2)cc1
active: IC50 [6] > 2.48 µM | AC50 [7] 3.57 µM | IC50 [5] 9.93 µM

CC(C)(C)c1cc[n+](C2=C([N-]S(=O)(=O)c3ccccc3)C(=O)c3ccccc3C2=O)cc1
active: EC50 [8] 4.89 µM | EC50 [9] 25 µM | EC50 [10] 9.04 µM | AC50 [11] 14.5 µM | AC50 [7] 2.63 µM
